Results as given in patent publication US20250381171A1, “COMBINATION OF DIHYDROBERBERINE AND ERGOTHIONEINE TO REDUCE OR INHIBIT ADVANCED GLYCATION END-PRODUCTS” (NANJING NUTRABUILDING BIO-TECH CO., LTD., priority 2023, published 2025).

What was measured:
SOD = SOD activity in skin of D-galactose-injected mice; assay type: in vivo, Kunming mice; conditions: 14th week, 100 mg/kg each s.c. once daily for 6 weeks, vs non-supplementation group
Description: (§1) Six-week-old, male, Kunming mice (n=40), weighed about 30±2 g, were obtained from Cavens Lab Animal (Changzhou, China) and housed in a controlled room (25±2° C., 60% relative humidity, 12 h light/dark cycle) with free access to water and standard laboratory diet. After an acclimation period (1 week), mice were randomly divided into four groups. Each mouse's back skin was chosen as the experimental observation area, a razor was used to shave off the back hair. 5% sodium sulfide solution was applied to the back to remove the hair. All mice were then injected subcutaneously with same volume of D-galactose (1000 mg/kg), once a day for 8 weeks. During the entire experiment, the daily food intake and weight of each mouse were recorded every day, and the D-galactose injection dose were adjusted according to the weight change. The four groups were non-supplement group (Con, Group 1); DHB supplement group (100 mg/kg, Group 2); EGT supplement group (100 mg/kg, Group 3); and EGT+DHB supplement group (100 mg/kg EGT+100 mg/kg DHB, Group 4). Mice in groups 2-4 were injected subcutaneously (s.c.) into their back skins with the corresponding concentration before each major meal once daily for 6 weeks. All mice were sacrificed after 6 weeks at the end of the experiment. […] The levels of H2O2, SOD, CAT, GSH, and GSH-Px in the skin were detected with relative kits as reference. […]

CAT = CAT activity in skin of D-galactose-injected mice; assay type: in vivo, Kunming mice; conditions: 14th week, 100 mg/kg each s.c. once daily for 6 weeks, vs non-supplementation group
Description: as §1

GSH = GSH activity in skin of D-galactose-injected mice; assay type: in vivo, Kunming mice; conditions: 14th week, 100 mg/kg each s.c. once daily for 6 weeks, vs non-supplementation group
Description: as §1

GSH-Px = GSH-Px activity in skin of D-galactose-injected mice; assay type: in vivo, Kunming mice; conditions: 14th week, 100 mg/kg each s.c. once daily for 6 weeks, vs non-supplementation group
Description: as §1

[1] = system: advanced glycation end products (AGEs) formed from bovine serum albumin (BSA) and D-ribose; assay: Measurement of glycation: fluorescence of AGEs from BSA incubated with D-ribose; assay type: biochemical; conditions: BSA 1 mg/ml + D-ribose 10 mM, 37° C., 10 days; EGT 3 mM alone or DHB 3 mM + EGT 3 mM
Description: The formulation of glycation products was observed placing together a bovine serum albumin (BSA) and D-ribose in the absence of DHB and EGT, EGT only and DHB and EGT combination.
Specifically, a solution of BSA at a concentration of 1 mg/ml dissolved in phosphate-buffered saline (PBS) was incubated at 37° C. for 10 days with D-ribose at a concentration of 10 mM, in the presence of EGT only (3 mM, Group 1) and the DHB (3 mM) and EGT (3 mM) combination (Group 2).
So, the glycation was evaluated by measuring the fluorescence of the AGEs at λem=450 nm emitted by each sample after excitation at λex=380 nm. The inhibition of glycation was visualized by the decrease in fluorescence compared with the samples treated with the sugar alone.

Structure (SMILES) | SOD activity (in words) (SOD) | CAT activity (in words) (CAT) | GSH activity (in words) (GSH) | GSH-Px activity (in words) (GSH-Px) | anti-glycation activity (in words) [1]
COc1ccc2c(c1OC)CN1CCc3cc4c(cc3C1=C2)OCO4 [DHB, Dihydroberberine] | significantly improved | significantly improved | significantly improved | significantly improved | –
C[N+](C)(C)[C@@H](Cc1c[nH]c(=S)[nH]1)C(=O)[O-] [EGT, ergothioneine] | significantly improved | significantly improved | significantly improved | significantly improved | fabulous anti-glycation activity
